Test: Long-term stability in feeds at room temperature (25° C.±2° C., RH 60%±10%; HPLC)
Format: physicochemical
Conditions: for stability / content in feeds at room temperature (in words): during the testing period
Description: Feeds: ZUSF's premixed feed (A mixture of crushed Feed A and crushed Feed B at a weight ratio of 2:1, wherein Feed A was a 5.33% multi-premixed feed for piglets from ZUSF's Hao-Ru-Zhen-Jing, and B was a 2.67% multi-premixed feed for piglets from ZUSF's Hao-Ru-Zhen-Jing); creep feed for piglets from CP FEED; INSIGHTER's feed for broiler; 4% premixed feed from GUANGDONG CO-POWER.
Preparation of a sample of 1% premix of Ingredient: 1 g of an ingredient was respectively weighed out and evenly mixed with 99 g of corncob meal in a mixer to give a sample of 1% premix of an ingredient.
Preparation of a sample of 500 ppm feed of an ingredient: The sample of 1% premix of an ingredient was diluted step by step using the ZUSF's remixed feed to 5000 ppm and 500 ppm to give the sample of 500 ppm feed of an ingredient for later testing.
Preparation of a sample of 100 ppm feed of an ingredient: sample of 1% premix of an ingredient was diluted step by step using the creep feed for piglets from CP FEED to 1000 ppm and then 100 ppm to give the sample of 100 ppm feed of an ingredient for later testing.
Preparation of a sample of 100 ppm feed of an ingredient: The sample of 1% premix of an ingredient was diluted step by step using the INSIGHTER's feed for broiler to 1000 ppm and 100 ppm to give the sample of 100 ppm feed of an ingredient for later testing.
Preparation of a sample of 2000 ppm feed of an ingredient: The sample of 1% premix of an ingredient was diluted step by step using the 4% premixed feed from GUANGDONG CO-POWER to 5000 ppm and 2000 ppm to give the sample of 2000 ppm feed of an ingredient for later testing.
Method: Three replications of each feed sample were tested at the condition of 25° C.±2° C. and RH 60%±10%, wherein the replications of each feed sample were sampled in parallel for HPLC analysis on day 5, day 10, day 15, day 30, day 60, and day 90.
25.0 mg of an ingredient was accurately weighed out and dissolved in an appropriate amount of methanol or n-hexane by ultrasonication. The solution was then transferred to a volumetric flask and diluted to 50 mL to give a 500 ppm (by wt.) stock solution. The samples from the stock solution were diluted with methanol or n-hexane respectively to a concentration of 10 ppm, 25 ppm, 50 ppm, 100 ppm, and 250 ppm of work solution, and then the working solutions were filtered by 0.22 μm organic membranes. Between the concentration of a sample and the response value of HPLC peak area thereof, the linearity was adjusted and detected to give a standard curve.
5.0000 g of the samples sampled at different time intervals were respectively accurately weighed out, and dissolved in 25 mL of methanol or n-hexane by ultrasonication for 10 minutes. The resulting solutions were filtered by organic membranes and then analyzed by HPLC.
• Equipment: Waters e2695 with PDA detector. • Mobile phase: 0.02% phosphoric acid:methanol=5:95 (v:v). • Column: Symmetry Cis column (Waters; 250 mm×4.6 mm, 5 μm). • Wavelength: 235 nm. • Temperature of the Column: 25° C. • Injection volume: 10 μL. • Flow rate: 1 mL/min. Normal Phase Chromatography: • Equipment: Shimadzu LC-14C/SPD-15C. • Column: SuperSil NH2 column ([…]; 250 mm×4.6 mm). • Mobile phase: n-hexane:isopropanol=60:40 (v:v). • Wavelength: 235 nm. • Temperature of the Column: 25° C. • Injection volume: 20 μL. • Flow rate: 1 mL/min. 3: Results

[1] = 100 ppm in creep feed for piglets from CP FEED, Day 5
[2] = 100 ppm in creep feed for piglets from CP FEED, Day 15
[3] = 100 ppm in creep feed for piglets from CP FEED, Day 30
[4] = 100 ppm in creep feed for piglets from CP FEED, Day 60
[5] = 100 ppm in creep feed for piglets from CP FEED, Day 90
[6] = 100 ppm in INSIGHTER's broiler feed, Day 5
[7] = 100 ppm in INSIGHTER's broiler feed, Day 15
[8] = 100 ppm in INSIGHTER's broiler feed, Day 30
[9] = 100 ppm in INSIGHTER's broiler feed, Day 60
[10] = 500 ppm in ZUSF's premixed feed, Day 5
[11] = 500 ppm in ZUSF's premixed feed, Day 15
[12] = 500 ppm in ZUSF's premixed feed, Day 30
[13] = 500 ppm in ZUSF's premixed feed, Day 60
[14] = 500 ppm in ZUSF's premixed feed, Day 90

Residual amount of active ingredient [1]	Residual amount of active ingredient [2]	Residual amount of active ingredient [3]	Residual amount of active ingredient [4]	Residual amount of active ingredient [5]	stability / content in feeds at room temperature (in words)	Residual amount of active ingredient [6]	Residual amount of active ingredient [7]	Residual amount of active ingredient [8]	Residual amount of active ingredient [9]	Residual amount of active ingredient [10]	Residual amount of active ingredient [11]	Residual amount of active ingredient [12]	Residual amount of active ingredient [13]	Residual amount of active ingredient [14]	Residual amount of active ingredient (2000 ppm in 4% premixed feed from GUANGDONG CO-POWER, Day 5)	Residual amount of active ingredient (2000 ppm in 4% premixed feed from GUANGDONG CO-POWER, Day 15)	Residual amount of active ingredient (2000 ppm in 4% premixed feed from GUANGDONG CO-POWER, Day 30)	Residual amount of active ingredient (2000 ppm in 4% premixed feed from GUANGDONG CO-POWER, Day 60)	Residual amount of active ingredient (2000 ppm in 4% premixed feed from GUANGDONG CO-POWER, Day 90)	SMILES
98.28%	96.93%	93.07%	77.54%	68.28%	decreased substantially	–	–	–	–	–	–	–	–	–	–	–	–	–	–	CC(C)CCC1=C(O)C(C(=O)C(C)C)=C(O)C(CCC(C)C)(CCC(C)C)C1=O [hexahydro-colupulone, reference compound]
98.19%	96.62%	95.70%	95.47%	95.77%	–	99.00%	98.79%	98.39%	98.11%	100.31%	98.23%	96.01%	96.13%	95.29%	98.62%	95.56%	95.48%	96.34%	95.41%	CCCC(=O)OC1=C(CCC(C)C)C(=O)C(CCC(C)C)(CCC(C)C)C(O)=C1C(=O)C(C)C [hexahydro-colupulone mono-butyrate]
97.69%	96.27%	96.22%	96.16%	95.08%	relatively poor in some of the feeds	94.93%	81.77%	72.30%	71.97%	96.65%	96.65%	96.84%	95.23%	85.29%	–	–	–	–	–	CC(=O)OC1=C(CCC(C)C)C(=O)C(CCC(C)C)(CCC(C)C)C(O)=C1C(=O)C(C)C [hexahydro-colupulone mono-acetate, Hexahydro-Colupulone Mono-Acetate]

Reference: patent US12673915B2, “Precursor compound of hexahydro-beta-acid component compound, feed composition and use thereof” (WISORIG TECHNOLOGIES PTE. LIMITED, priority 2020, dated 2026)
